Reference: patent US20110112192A1, “VERFAHREN ZUR GERUCHSEXTINKTION” (priority 2007, published 2011)

Experiments:
[1] = Administration of acetylcysteine before the consumption of a garlic containing meal; format: in vivo, human; conditions: administration about 10 minutes before the meal; 50 mg female, 75 mg male test persons; 15 tests per person
Experimental: 2. Administration of an acetylcysteine before the consumption of a garlic containing meal Battery of tests and dosage applied the same as under 1. The administration of acetylcysteine was done about 10 minutes before the meal.

[2] = Administration of acetylcysteine after the consumption of a garlic containing meal; format: in vivo, human; conditions: ACC-fizzing tablets (Hexal) given after the meal; 50 mg female test persons (32 to 74 kg), 75 mg male test persons (52 to 98 kg); 15 tests per person
Experimental: 1. Administration of acetylcysteine after the consumption of a garlic containing meal Battery of tests with 15 tests per person. Dosing: 50 mg with female test persons (32 to 74 kg body weight) i. 75 mg with male test persons (52 to 98 kg body weight) In these tests, the ACC-fizzing tablets of the Hexal company were applied. The positive test results were observed each within a time window of 10 to 20 minutes after administration of the acetylcysteine.

CC(=O)N[C@@H](CS)C(=O)O [acetylcysteine]
odor formation after garlic containing meal [1]: odor formation was likewise prevented | odor after garlic containing meal [2]: no odor in all tests
